Results as given in ChEMBL document CHEMBL1134363 (J Med Chem, 2001).

Assays:
[1] = biological target: Sodium-dependent serotonin transporter (Rattus norvegicus, UniProt P31652); assay: In vitro binding affinity was determined against serotonin reuptake site of rat in presence of [3H]paroxetine radioligand
[2] = biological target: T1, Adrenergic receptor alpha-2 (Rattus norvegicus, UniProt P22086+P19328+P22909); assay: In vitro binding affinity against alpha-2 adrenergic receptor of rat in presence of [3H]-RX 821002 radioligand; assay type: protein assay
T1 sequence (P22086 whole entry): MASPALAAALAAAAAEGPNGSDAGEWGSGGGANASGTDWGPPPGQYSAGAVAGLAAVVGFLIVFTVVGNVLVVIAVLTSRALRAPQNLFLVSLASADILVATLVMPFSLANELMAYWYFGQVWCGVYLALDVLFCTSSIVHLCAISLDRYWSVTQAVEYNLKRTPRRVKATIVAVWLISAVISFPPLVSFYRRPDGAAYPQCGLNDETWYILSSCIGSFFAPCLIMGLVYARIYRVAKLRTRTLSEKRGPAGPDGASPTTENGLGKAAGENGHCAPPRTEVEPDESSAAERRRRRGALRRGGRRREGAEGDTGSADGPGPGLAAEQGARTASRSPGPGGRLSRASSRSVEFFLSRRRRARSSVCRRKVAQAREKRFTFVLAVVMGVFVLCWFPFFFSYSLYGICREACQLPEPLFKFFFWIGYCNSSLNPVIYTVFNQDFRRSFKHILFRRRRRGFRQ
T1 sequence (P19328 whole entry): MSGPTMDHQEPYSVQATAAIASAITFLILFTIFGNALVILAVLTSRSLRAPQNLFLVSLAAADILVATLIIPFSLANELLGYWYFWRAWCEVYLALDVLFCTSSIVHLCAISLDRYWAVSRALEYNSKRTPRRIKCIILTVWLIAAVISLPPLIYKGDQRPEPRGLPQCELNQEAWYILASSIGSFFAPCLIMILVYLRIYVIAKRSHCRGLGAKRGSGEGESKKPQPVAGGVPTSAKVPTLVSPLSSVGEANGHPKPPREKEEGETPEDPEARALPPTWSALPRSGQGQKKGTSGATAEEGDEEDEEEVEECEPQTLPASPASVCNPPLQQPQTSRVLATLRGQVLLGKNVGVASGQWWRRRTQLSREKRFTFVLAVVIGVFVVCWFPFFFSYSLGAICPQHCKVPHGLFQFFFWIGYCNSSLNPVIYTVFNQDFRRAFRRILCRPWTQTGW
T1 sequence (P22909 whole entry): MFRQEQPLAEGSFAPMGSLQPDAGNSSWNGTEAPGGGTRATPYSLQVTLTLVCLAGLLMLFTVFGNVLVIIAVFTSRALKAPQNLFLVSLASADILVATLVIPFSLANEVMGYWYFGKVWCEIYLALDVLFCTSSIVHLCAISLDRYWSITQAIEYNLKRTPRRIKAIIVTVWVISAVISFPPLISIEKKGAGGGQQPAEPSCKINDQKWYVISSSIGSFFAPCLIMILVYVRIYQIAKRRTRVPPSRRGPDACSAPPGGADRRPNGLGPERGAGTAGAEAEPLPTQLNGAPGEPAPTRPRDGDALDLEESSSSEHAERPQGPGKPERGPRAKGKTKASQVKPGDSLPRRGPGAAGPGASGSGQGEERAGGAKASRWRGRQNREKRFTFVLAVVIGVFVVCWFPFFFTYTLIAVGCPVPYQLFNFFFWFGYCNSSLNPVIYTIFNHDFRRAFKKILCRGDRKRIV

[3] = biological target: T2, Adrenergic receptor alpha-1 (Rattus norvegicus, UniProt P15823+P23944+P43140); assay: In vitro binding affinity against alpha-1 adrenergic receptor of rat in presence of [3H]-prazosin radioligand; assay type: protein assay
T2 sequence (P15823 whole entry): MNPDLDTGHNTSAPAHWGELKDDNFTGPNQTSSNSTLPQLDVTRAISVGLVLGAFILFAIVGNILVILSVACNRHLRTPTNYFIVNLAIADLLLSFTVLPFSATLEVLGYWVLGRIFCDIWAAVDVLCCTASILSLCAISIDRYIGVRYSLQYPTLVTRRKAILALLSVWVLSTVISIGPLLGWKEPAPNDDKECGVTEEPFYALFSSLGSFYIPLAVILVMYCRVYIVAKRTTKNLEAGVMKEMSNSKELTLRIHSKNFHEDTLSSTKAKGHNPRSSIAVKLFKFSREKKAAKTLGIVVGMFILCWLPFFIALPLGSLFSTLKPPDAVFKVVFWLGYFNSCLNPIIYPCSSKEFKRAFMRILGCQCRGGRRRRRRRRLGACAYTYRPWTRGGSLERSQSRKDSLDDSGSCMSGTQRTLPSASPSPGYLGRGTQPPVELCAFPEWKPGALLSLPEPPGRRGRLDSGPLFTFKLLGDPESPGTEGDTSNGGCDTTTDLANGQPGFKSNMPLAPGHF
T2 sequence (P23944 whole entry): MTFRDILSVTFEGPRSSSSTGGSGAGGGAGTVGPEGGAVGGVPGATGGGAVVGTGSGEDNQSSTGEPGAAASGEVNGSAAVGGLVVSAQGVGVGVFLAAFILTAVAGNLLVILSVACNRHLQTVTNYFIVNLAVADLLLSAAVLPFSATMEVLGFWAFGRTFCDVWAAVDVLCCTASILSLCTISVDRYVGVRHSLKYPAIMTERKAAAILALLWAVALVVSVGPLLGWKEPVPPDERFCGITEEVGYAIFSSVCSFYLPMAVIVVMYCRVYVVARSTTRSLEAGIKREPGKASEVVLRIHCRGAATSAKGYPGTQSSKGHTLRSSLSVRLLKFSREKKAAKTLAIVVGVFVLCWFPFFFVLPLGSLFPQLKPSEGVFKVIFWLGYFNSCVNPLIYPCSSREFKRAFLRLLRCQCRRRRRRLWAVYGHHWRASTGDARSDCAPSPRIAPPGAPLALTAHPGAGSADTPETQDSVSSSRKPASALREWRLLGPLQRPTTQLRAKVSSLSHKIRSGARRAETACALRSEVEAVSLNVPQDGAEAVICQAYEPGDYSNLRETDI
T2 sequence (P43140 whole entry): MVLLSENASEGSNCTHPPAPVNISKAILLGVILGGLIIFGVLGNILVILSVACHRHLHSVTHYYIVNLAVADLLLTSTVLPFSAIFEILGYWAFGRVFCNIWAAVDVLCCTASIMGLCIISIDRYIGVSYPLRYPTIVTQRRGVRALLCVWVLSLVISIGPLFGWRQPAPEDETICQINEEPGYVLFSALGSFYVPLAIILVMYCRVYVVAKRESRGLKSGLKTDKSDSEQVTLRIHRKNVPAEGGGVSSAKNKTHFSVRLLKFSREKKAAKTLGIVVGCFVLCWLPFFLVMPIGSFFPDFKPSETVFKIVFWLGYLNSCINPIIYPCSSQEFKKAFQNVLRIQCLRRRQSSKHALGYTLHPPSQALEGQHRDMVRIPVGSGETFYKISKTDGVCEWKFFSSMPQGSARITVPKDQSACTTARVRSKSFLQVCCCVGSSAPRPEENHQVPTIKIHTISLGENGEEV

[4] = biological target: Norepinephrine transporter (Rattus norvegicus, UniProt Q9WTR4); assay: In vitro binding affinity was determined against NA (noradrenaline) reuptake site of rat in presence of [3H]nisoxetine radioligand
Norepinephrine transporter, sequence (Q9WTR4 whole entry): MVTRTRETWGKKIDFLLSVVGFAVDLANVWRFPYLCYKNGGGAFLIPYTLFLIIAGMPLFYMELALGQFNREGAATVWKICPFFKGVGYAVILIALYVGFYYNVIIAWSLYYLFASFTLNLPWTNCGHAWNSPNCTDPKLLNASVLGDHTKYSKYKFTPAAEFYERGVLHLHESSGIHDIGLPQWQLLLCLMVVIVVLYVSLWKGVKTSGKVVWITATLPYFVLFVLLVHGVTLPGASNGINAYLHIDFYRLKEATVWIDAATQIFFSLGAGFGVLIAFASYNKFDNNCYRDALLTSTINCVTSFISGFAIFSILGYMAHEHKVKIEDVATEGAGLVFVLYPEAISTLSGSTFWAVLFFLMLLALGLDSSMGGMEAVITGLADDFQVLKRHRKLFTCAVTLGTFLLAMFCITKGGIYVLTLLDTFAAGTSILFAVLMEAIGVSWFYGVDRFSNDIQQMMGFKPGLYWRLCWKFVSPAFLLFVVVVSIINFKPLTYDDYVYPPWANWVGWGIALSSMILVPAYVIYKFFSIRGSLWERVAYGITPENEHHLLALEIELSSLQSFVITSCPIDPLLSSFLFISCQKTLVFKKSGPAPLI

Sodium-dependent serotonin transporter, sequence (P31652 whole entry): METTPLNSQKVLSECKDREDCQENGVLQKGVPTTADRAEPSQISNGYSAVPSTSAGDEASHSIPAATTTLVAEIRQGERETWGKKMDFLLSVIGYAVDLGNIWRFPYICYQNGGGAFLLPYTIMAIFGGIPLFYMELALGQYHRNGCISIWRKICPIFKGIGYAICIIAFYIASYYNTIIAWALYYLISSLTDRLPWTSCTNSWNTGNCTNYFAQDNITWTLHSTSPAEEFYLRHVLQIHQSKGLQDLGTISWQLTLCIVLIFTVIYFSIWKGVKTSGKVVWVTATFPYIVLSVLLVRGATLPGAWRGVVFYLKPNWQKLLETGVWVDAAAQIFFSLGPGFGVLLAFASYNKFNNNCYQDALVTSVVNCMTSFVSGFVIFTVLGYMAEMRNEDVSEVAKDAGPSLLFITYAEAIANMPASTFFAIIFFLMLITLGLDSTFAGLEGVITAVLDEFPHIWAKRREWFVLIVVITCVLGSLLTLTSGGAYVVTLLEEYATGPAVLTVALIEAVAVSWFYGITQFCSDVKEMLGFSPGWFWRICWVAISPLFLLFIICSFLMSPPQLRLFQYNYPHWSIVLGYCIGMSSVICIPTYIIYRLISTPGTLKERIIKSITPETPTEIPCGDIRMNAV

SMILES | Ki [1] | Log Ki [2] | Log Ki [3] | Ki [4]
C1=C(CC2=NCCN2)CCc2ccccc21 [NAPAMEZOLE] | 200 nM | -8.5 | -7 | > 1000 nM
C1=C(Cc2c[nH]cn2)CCc2ccccc21 | 631 nM | -8.9 | -7.3 | 794 nM
C1=NC[C@H](C2C[C@@]23CCc2ccccc2C3)N1 (stereo partly drawn) | 25.1 nM | -6.6 | -6 | 398 nM
CC1(CC2=Cc3ccccc3CC2)CN=CN1 (stereo not drawn) | 63.1 nM | -6.1 | -5.9 | 316 nM
C1=NCC([C@H]2[C@@H]3Cc4ccccc4C[C@@H]32)N1 (stereo partly drawn) | 631 nM | -6.3 | -6.3 | 
NC1=NCC(CC2=Cc3c(Cl)cccc3CC2)O1 (stereo not drawn) |  | -6.2 | -6.5 | > 1000 nM
Fc1ccc2oc(CC3CN=CN3)cc2c1 (stereo not drawn) | 158 nM | -7 |  | 794 nM
COc1ccc2c(c1)C=C(CC1CN=CN1)CC2 (stereo not drawn) | 200 nM | -6.3 | -5.6 | > 1000 nM
FC(F)(F)c1ccc2c(c1)C=C(CC1CN=CN1)CC2 (stereo not drawn) | 158 nM | -6.4 | -5.9 | > 10000 nM
C1=NCC(Cc2cc3cc(-c4ccccc4)ccc3o2)N1 (stereo not drawn) | > 10000 nM | < -5 | < -5.5 | 158 nM
C1=NC[C@@]2(CC[C@@H]3Cc4ccccc4C[C@H]3C2)N1 (relative stereo) | 25.1 nM | -6.1 | -6.2 | > 1000 nM
NC1=NC(CC2=Cc3ccccc3CC2)CO1 (stereo not drawn) | 158 nM | -7.3 |  | 501 nM
Cc1ccc2c(c1)C=C(CC1CN=C(N)O1)CC2 (stereo not drawn) | 251 nM | -5.8 | -6.6 | > 1000 nM
Cc1ccc2c(c1)CCC(CC1CN=CN1)=C2 (stereo not drawn) | 15.8 nM | -6.4 |  | > 1000 nM
Cc1ccc2c(c1)CCC(CC1CN=C(N)O1)=C2 (stereo not drawn) | 79.4 nM | -5.8 |  | > 1000 nM
C1=NC[C@@H](C2CC23Cc2ccccc2C3)N1 (stereo partly drawn) | 398 nM | -7.1 | -5.2 | 316 nM
C1=NC(CC2CCc3ccccc3O2)CN1 (stereo not drawn) | 501 nM | -7.3 | -6.5 | 794 nM
C1=NCC(CC2COc3ccccc3O2)N1 (stereo not drawn) | 1260 nM | -7.5 | -6.2 | 1000 nM
Fc1ccc2c(c1)CC(CC1CN=CN1)C2 (stereo not drawn) |  | -8.1 | -6.2 | 316 nM
C1=NC[C@@H](C[C@]23CCc4ccccc4C2C3)N1 (stereo partly drawn) | 20 nM | -7.2 | -5.9 | 316 nM
C1=NC[C@@H]([C@H]2[C@@H]3CCc4ccccc4[C@@H]32)N1 | > 3160 nM | -6.4 |  | 251 nM
C1=NCC2(CC3(Cc4ccccc4C3)C2)N1 | 6310 nM | -6.2 | -5.3 | > 10000 nM
COc1cccc2c1C=C(CC1CN=CN1)CC2 (stereo not drawn) |  | -7.6 | -6.8 | 1000 nM
Cc1ccc2c(c1)C=C(CC1CN=CN1)CC2 (stereo not drawn) | 63.1 nM | -6.8 | -6.4 | 1000 nM
Cc1cccc2c1C=C(CC1CN=CN1)CC2 (stereo not drawn) | 12.6 nM | -6.8 | -6.2 | 1000 nM
NC1=NCC(CC2=Cc3ccccc3CC2)O1 (stereo not drawn) | 63.1 nM | -6 |  | 1000 nM

Continued, values first:

Ki [1] | Log Ki [2] | Log Ki [3] | Ki [4] | SMILES
31.6 nM | -6.6 | -5.7 | 63.1 nM | C[C@@]1(C[C@H]2CN=CN2)CCc2ccccc2C1
12.6 nM | -7.3 | -6.1 | 100 nM | Fc1cc2c(cc1F)CC(CC1CN=CN1)C2 (stereo not drawn)
79.4 nM | -7.8 | -5.9 | 31.6 nM | C1=NCC(CC2=Cc3ccccc3C2)N1 (stereo not drawn)
> 10000 nM | -6 | -6.1 | 39.8 nM | CC1(C)CC(CC2CN=CN2)=Cc2ccccc21 (stereo not drawn)
50.1 nM | -9.1 | -6.9 | 31.6 nM | C1=NC[C@H](C2CC23Cc2ccccc2C3)N1 (stereo partly drawn)
100 nM | -8.9 | -6.8 | 100 nM | Fc1cccc2c1CC(CC1CN=CN1)C2 (stereo not drawn)
> 1000 nM | -5.5 | -6.1 | 50.1 nM | C1=NCC([C@@H]2[C@@H]3Cc4ccccc4C[C@@H]32)N1 (stereo partly drawn)
251 nM | -6.9 | -5.8 | 63.1 nM | C1=NCC(CC2=Cc3ccccc3OC2)N1 (stereo not drawn)
20 nM | -7.6 | -6.7 | 25.1 nM | Cc1cc2c(cc1C)CC(CC1CN=CN1)C2 (stereo not drawn)
39.8 nM | -6.5 | -7.2 | 79.4 nM | NC1=NC(CC2=Cc3ccccc3CC2)CN1 (stereo not drawn)
10 nM | -7.8 | -6.1 | 100 nM | C1=NCC(CC2CCc3ccccc3C2)N1 (stereo not drawn)
